Key:
[1] = system: human T47-D cell progesterone receptor; test: Relative binding affinity to human T47-D cell progesterone receptor ([3H]-ORG 2058 displacement); conditions: for IC50: mean ± s.e.m., 2 nM [3H]-ORG 2058, 3 hours at 4° C., T47-D cell PR, read-out: ED50 (concentration inhibiting 50% of the specific binding of [3H]-ORG 2058); for RBA (relative binding affinity): relative to nomegestrol acetate = 100%
Method: (§1) The progestational activity of the compounds according to the present invention can be assessed mainly in two specific experimental models the affinity for the progesterone receptor (PR) in vitro, and the endometrial tranformation of the rabbit uterus in vivo. Human PRs are readily available in high amounts from the T47-D cell line in culture (M. B. Mockus et al., Endocrinology, 1982, 110, 1564-1571). Relative binding affinities (RBA) for the human T47-D cell PR are determined as previously described (J. Botella et al., J. Steroid Biochem. Molec. Biol., 1994, 50, 41-47) using [^3 H]-ORG 2058 as a labelled specific ligand (G. Fleischmann and M. Beato, Biochim. Biophys. Acta, 1978, 540, 500-517) and nomegestrol acetate as a non-radioactive reference progestin. Competitive incubations were performed against 2 nM of [^3 H]-ORG 2058 for 3 hours at 4° C. with […] of non-labelled steroid, chosen between 4 and 256 nM following a 1/2^n dilution scheme. Displacement curves were fitted for each experiment, and the concentration inhibiting 50% of the specific binding of [^3 H]-ORG 2058 was calculated for each curve (IC50).

[2] = system: uterus of estrogen-primed immature female rabbits (endometrial transformation); test: Clauberg-McPhail test by oral administration (gavage), endometrial transformation of the rabbit uterus; assay type: in vivo; conditions: for ED50 (dose for mean McPhail grade equal to 2): mean ± s.e.m., total dose/rabbit/5 days; for Relative activity: relative to nomegestrol acetate = 100%
Method: as §1
One specific pharmacological test has been standardized in vivo for the detection and quantitation of pseudogestagenic activity since the mid-30's: it is based on the property of the uterus of estrogen-primed immature female rabbits to respond to very slight amounts of progestin by a typical endometrial transformation into a densely packed and interlaced epithelial network called "dentelle". The original test schedule, which includes 6 days of estrogen priming (total subcutaneous dose of 30 μg/rabbit of oestradiol benzoate) followed by 5 days of progestational treatment, was designed as early as 1930 by C. Clauberg, Zentr. Gynakol. 1930, 54, 2757-2770. The semi-quantitative scale used to grade the intensity of the microscopical appearance of the dentelle was set up by M. K. McPhail, J. Physiol (London), 1934, 83, 145-156. This overall Clauberg-McPhail procedure has been extensively used to screen steroids for putative progestational activity in vivo and is still part of the basic hormonal profile of any new progestin such as norgestimate (A Phillips et al., Contraception, 1987, 36, 181-192), or desogestrel (J. Van der Vies and J. De Visser, Arzneim. Forsch/Drug Res., 1983, 33, 231-236). The progestational potency is inversely related to the dose needed to induce a half-maximal stimulation of the dentelle, i.e. to record a mean McPhail grade equal to 2. This ED50 is deduced from the dose-responsecurve and expressed in total dose/rabbit/5 days. All compounds were tested only following oral administration by gavage, in suspension in a carboxy-methylcellulose solution.

[3] = system: ventral prostate and seminal vesicle of immature castrated male rats; test: Residual androgenic activity in the immature castrated male rat model; assay type: in vivo; conditions: for Ventral Prostate weight / Seminal Vesicle weight: 10 daily administrations; for effect on the growth of male accessory sex organs (residual androgenic activity): in words, gavage (PO), Tables 3 and 4
Excerpt: The residual androgenic potential is an important feature to be evaluated for any new progestin, because it is highly predictive of androgenic side-effects in women. One pharmacological model of androgenic activity has been standardized to screen steroids or related compounds in immature castrated male rats, using the hypertrophy of the vental prostate and of the seminal vesicle as the endpoint, following 10 daily administrations (R. I. Dorfman, in Methods in Hormone Research, volume 2, London, Academic Press, 1962: 275-313; A. G. Hilgar and D. J. Hummel, Androgenic and Myogenic Endocrine Bioassay Data, U.S. Department of Health, Education and Welfare, Washington D.C., 1964).

[4] = system: ventral prostate and seminal vesicle of immature castrated male rats; conditions: well-known from the literature (Tausk and de Visser); cited from earlier work
[5] = system: uterus of estrogen-primed immature female rabbits (endometrial transformation); conditions: in words, known from the literature; cited from earlier work
[6] = Table 3, PO, 20 mg/animal/day, mean ± s.e.m. of 8 animals, castrated controls 12.0 ± 0.9, medroxyprogesterone acetate p <0.001, Example 1 ns
[7] = Table 3, PO, 20 mg/animal/day, mean ± s.e.m. of 8 animals, castrated controls 12.3 ± 0.7, medroxyprogesterone acetate p <0.01, Example 1 ns
[8] = Table 4, PO, 20 mg/animal/day, mean ± s.e.m. of 7 or 8 animals, castrated controls 10.4 ± 0.6, both ns
[9] = Table 4, PO, 20 mg/animal/day, mean ± s.e.m. of 7 or 8 animals, castrated controls 11.8 ± 0.6, cyproterone acetate p <0.05, Example 4 ns

SMILES	IC50 [1] [µM]	RBA (relative binding affinity) [1] [%]	ED50 (dose for mean McPhail grade equal to 2) [2] [μg/rabbit 5 days]	Relative activity [2] [%]	effect on the growth of male accessory sex organs (residual androgenic activity) [3]	also measured
CC(=O)O[C@]1(C(C)=O)CC[C@H]2[C@@H]3C[C@H](C)C4=CC(=O)[C@H]5C[C@H]5[C@@H]4[C@H]3CC[C@@]21C [Example 5, 17α-acetoxy-1β,2β-methylene-6α-methyl-3,20-dioxo-19-nor-pregna-4-ene]	0.0177 ± 0.0024	50	> 750 ± 6.0	> 17		
CC(=O)O[C@]1(C(C)=O)CC[C@H]2[C@@H]3C[C@H](C)C4=CC(=O)CC[C@]4(C)[C@H]3CC[C@@]21C [Medroxyprogesterone acetate]					caused both organs to more or less double in weight	Ventral Prostate weight [3, 6]: 29.1 ± 1.4 mg; Seminal Vesicle weight [3, 7]: 19.9 ± 1.8 mg; androgenic properties [4]: weak androgenic properties
CC(=O)O[C@]1(C(C)=O)CC[C@H]2[C@@H]3C=C(Cl)C4=CC(=O)[C@@H]5C[C@@H]5[C@]4(C)[C@H]3CC[C@@]21C [Cyproterone acetate]					very weak and limited to the ventral prostate, at the border of statistical significance	Seminal Vesicle weight [3, 8]: 11.3 ± 0.6 mg; Ventral Prostate weight [3, 9]: 15.3 ± 1.3 mg; progestational activity [5]: potent progestational activity
CC(=O)O[C@]1(C(C)=O)CC[C@H]2[C@@H]3C=C(C)C4=CC(=O)CC[C@@H]4[C@H]3CC[C@@]21C [Nomegestrol acetate, reference compound]	0.0089 ± 0.002	100	170 ± 41	100		progestational activity [5]: potent orally active
C[C@]12CC[C@H]3[C@@H](CCC4=CC(=O)CC[C@@]43C)[C@@H]1CC[C@@H]2O [Testosterone]						Ventral Prostate weight ([3]; Table 3, SC, 0.05 mg/animal/day, mean ± s.e.m. of 8 animals, castrated controls 12.0 ± 0.9, *** p <0.001): 90.4 ± 4.4 mg; Seminal Vesicle weight ([3]; Table 3, SC, 0.05 mg/animal/day, mean ± s.e.m. of 8 animals, castrated controls 12.3 ± 0.7, *** p <0.001): 90.3 ± 6.7 mg; Seminal Vesicle weight ([3]; Table 4, SC, 0.05 mg/animal/day, mean ± s.e.m. of 7 or 8 animals, castrated controls 10.4 ± 0.6, *** p <0.001): 79.0 ± 5.3 mg; Ventral Prostate weight ([3]; Table 4, SC, 0.05 mg/animal/day, mean ± s.e.m. of 7 or 8 animals, castrated controls 11.8 ± 0.6, *** p <0.001): 80.9 ± 3.4 mg
CC(=O)O[C@]1(C(C)=O)CC[C@H]2[C@@H]3CC(C)(C)C4=CC(=O)CC[C@@H]4[C@H]3CC[C@@]21C [Example 1, 17α-acetoxy-6,6-dimethyl-3,20-dioxo-19-nor-pregna-4-ene]	0.0278 ± 0.002	32	152 ± 28	112	totally inactive	Ventral Prostate weight [3, 6]: 13.0 ± 0.3 mg; Seminal Vesicle weight [3, 7]: 10.4 ± 0.5 mg
CC(=O)O[C@]1(C(C)=O)CC[C@H]2[C@@H]3C[C@H](C)C4=CC(=O)[C@@H]5C[C@@H]5[C@@H]4[C@H]3CC[C@@]21C [Example 4, 17α-acetoxy-1α,2α-methylene-6α-methyl-3,20-dioxo-19-nor-pregna-4-ene]	0.0228 ± 0.0017	39	66 ± 11	258	totally inactive	Seminal Vesicle weight [3, 8]: 11.2 ± 0.5 mg; Ventral Prostate weight [3, 9]: 12.1 ± 0.4 mg

— US6180803A, “19-nor-pregnene derivatives and pharmaceuticals containing such derivatives” (priority 1996, dated 2001)
